Experimental data as given in US10421778B2, “Isoform-selective lysine deacetylase inhibitors” (WASHINGTON UNIVERSITY, priority 2015, dated 2019).
Positions of bridges follow the written chain, without caps; N, C: chain ends. Non-standard residues stand in square brackets, D forms with d. Residues, ends and D or L forms follow the SMILES beside them. *: point of attachment. GABA = NCCCC(=O)O; NHOH = ON*

How the values were obtained:
Assay in all cases: KDAC inhibition assay, Caliper EZ Reader II
Assay type in all cases: biochemical
recombinant human KDAC1 = molecular target: T1, recombinant human KDAC1 (Homo sapiens, UniProt Q13547); details: for KDAC Inhibition Activity KDAC1 (% inhibition): % inhibition at 30 μM
T1 construct: purchased BPS Bioscience

recombinant human KDAC3 = molecular target: T2, recombinant human KDAC3 (Homo sapiens, UniProt O15379); details: for KDAC Inhibition Activity KDAC3 (% inhibition): % inhibition at 30 μM
T2 construct: purchased BPS Bioscience

recombinant human KDAC6 = molecular target: T3, recombinant human KDAC6 (Homo sapiens, UniProt Q9UBN7); details: for KDAC Inhibition Activity KDAC6 (% inhibition): % inhibition at 30 μM
T3 construct: purchased BPS Bioscience
T3 sequence (Q9UBN7 1-1215): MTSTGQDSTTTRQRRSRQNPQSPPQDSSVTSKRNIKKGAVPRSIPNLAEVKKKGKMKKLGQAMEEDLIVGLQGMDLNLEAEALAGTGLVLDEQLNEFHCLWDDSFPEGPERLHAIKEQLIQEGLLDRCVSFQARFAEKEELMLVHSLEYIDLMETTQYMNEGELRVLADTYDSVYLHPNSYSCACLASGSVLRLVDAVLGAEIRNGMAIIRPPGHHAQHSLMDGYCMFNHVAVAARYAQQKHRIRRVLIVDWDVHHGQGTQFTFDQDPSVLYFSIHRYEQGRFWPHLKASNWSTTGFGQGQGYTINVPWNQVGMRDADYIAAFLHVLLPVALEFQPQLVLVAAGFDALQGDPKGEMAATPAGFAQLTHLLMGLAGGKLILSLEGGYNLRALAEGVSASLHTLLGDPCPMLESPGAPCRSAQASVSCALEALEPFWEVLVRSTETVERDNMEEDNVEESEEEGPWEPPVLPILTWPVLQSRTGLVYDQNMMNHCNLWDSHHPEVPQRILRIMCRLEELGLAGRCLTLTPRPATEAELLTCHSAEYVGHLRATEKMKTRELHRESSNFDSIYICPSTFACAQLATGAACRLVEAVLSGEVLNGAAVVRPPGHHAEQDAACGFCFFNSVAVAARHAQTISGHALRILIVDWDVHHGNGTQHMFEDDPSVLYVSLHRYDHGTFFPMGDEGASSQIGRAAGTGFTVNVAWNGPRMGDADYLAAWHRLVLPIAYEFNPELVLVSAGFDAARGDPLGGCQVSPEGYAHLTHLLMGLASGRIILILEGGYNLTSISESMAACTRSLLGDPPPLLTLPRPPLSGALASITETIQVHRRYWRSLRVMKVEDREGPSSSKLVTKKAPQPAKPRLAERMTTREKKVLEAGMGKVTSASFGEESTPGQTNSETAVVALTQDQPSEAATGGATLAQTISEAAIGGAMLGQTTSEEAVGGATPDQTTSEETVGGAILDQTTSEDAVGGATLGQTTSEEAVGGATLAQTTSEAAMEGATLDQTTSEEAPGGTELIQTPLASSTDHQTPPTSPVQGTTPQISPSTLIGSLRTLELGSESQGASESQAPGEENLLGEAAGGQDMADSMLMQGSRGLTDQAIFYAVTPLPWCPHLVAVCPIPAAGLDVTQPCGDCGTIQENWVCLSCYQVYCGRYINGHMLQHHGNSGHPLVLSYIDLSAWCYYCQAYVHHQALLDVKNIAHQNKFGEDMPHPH

recombinant human KDAC8 = molecular target: T4, recombinant human KDAC8 (Homo sapiens, UniProt Q9BY41); details: for KDAC Inhibition Activity KDAC8 (% inhibition): % inhibition at 30 μM
T4 construct: purchased BPS Bioscience
T4 sequence (Q9BY41 1-377): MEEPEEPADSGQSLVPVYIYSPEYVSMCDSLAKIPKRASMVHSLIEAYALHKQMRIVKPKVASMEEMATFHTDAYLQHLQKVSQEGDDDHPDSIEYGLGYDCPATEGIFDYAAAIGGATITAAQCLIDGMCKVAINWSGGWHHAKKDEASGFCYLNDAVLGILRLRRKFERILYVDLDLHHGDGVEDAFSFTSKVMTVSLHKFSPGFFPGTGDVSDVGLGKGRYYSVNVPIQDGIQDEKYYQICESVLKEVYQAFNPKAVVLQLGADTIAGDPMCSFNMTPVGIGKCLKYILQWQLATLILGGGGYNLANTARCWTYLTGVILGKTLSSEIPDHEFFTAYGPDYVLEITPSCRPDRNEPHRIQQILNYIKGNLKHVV

T1 sequence (Q13547 whole entry): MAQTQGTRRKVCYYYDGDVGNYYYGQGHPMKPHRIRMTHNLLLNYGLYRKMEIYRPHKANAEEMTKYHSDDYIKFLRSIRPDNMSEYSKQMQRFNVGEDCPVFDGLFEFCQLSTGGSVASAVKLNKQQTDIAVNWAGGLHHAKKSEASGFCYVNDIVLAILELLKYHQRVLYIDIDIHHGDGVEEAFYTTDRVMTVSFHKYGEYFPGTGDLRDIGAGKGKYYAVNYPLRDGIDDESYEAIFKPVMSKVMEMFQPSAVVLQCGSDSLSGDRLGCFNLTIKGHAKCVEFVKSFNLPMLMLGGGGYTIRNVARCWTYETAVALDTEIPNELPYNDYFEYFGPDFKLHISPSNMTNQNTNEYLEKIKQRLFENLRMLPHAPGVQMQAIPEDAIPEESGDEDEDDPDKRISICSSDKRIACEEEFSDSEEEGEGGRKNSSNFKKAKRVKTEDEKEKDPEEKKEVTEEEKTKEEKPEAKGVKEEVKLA
T2 sequence (O15379 whole entry): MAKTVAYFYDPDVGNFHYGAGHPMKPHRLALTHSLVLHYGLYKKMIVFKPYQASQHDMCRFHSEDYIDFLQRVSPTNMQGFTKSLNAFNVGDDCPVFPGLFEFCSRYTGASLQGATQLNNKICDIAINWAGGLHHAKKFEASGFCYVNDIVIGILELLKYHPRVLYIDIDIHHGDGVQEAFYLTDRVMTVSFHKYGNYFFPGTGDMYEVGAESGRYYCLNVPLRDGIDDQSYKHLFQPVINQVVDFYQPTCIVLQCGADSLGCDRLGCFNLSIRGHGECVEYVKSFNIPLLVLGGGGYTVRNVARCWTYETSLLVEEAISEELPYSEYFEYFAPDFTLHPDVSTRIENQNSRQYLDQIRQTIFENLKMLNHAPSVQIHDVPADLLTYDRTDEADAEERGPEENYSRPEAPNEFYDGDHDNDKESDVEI
T2 sequence (Q9Y618 395-489 partner limits assumed): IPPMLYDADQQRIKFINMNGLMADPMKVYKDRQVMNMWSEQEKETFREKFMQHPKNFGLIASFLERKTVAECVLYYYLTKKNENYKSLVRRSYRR

Compound	inhibition at 30 µM (recombinant human KDAC1) [%]	inhibition at 30 µM (recombinant human KDAC3) [%]	inhibition at 30 µM (recombinant human KDAC6) [%]	inhibition at 30 µM (recombinant human KDAC8) [%]	KDAC Inhibition Activity KDAC1 (% inhibition) (recombinant human KDAC1)	KDAC Inhibition Activity KDAC3 (% inhibition) (recombinant human KDAC3)	KDAC Inhibition Activity KDAC6 (% inhibition) (recombinant human KDAC6)	KDAC Inhibition Activity KDAC8 (% inhibition) (recombinant human KDAC8)
CC(C)[C@@H]1NC(=O)[C@@H]2CCCN2C(=O)[C@H]2CCCN2C(=O)C[C@@H](C(=O)NCCCC(=O)NO)NC1=O [Compound 14a, Cyclo-Asp(^DPro-Pro-Val)-NHCH2CH2CH2CONHOH] ([dP]PVD[GABA]-{NHOH}; lactam N-4)	4.5	67	82	31				
Cyclo-Asp(^DPro-Pro-Val)-NHCH2CH2CH2COOMe [Compound 12a]					54.6%	2%	Not active	Not active
Cyclo-Asp(^DPro-Pro-Val)-NHCH2CH2CH2OH [Compound 10a]					Not active	1%	1%	26%
Cyclo-^DAsp(Pro-^DPro-Val)-NHCH2CH2CH2OH [Compound 22b]					Not active	5%	Not active	12%
Cyclo-^DAsp(Pro-^DPro-Val)-NHCH2CH2S—SCH2CH2NH2 [Compound 26b]					Not active	Not active	13%	4%
Cyclo-Asp(^DPro-Pro-Val)-NHCH2CH2CH2SH [Compound 6a]					8%	17-31% 24% average	15-36% 26% average	6%
Cyclo-Asp(^DPro-Pro-Val)-NHCH2CH2CH2COOH [Compound 13a]					Not active	Not active	Not active	3%
Cyclo-Asp(Pro-^DPro-Val)-NHCH2CH2CH2SCH3 [Compound 19a]					2%	Not active	Not active	25%
Cyclo-^DAsp(Pro-^DPro-Val)-NHCH2CH2SH [Compound 17b]					Not active	Not active	18%	Not active
Cyclo-^DAsp(^DPro-Pro-Val)-NHCH2CH2CH2S(═O)CH3 [Compound 8b]					3.5%	5%	3%	38%
Cyclo-Asp(Pro-^DPro-Val)-NHCH2CH2CH2S(═O)CH3 [Compound 20a]					Not active	Not active	Not active	19%
Cyclo-^DAsp(Pro-^DPro-Val)-NHCH2CH2CH2COOMe [Compound 23b]					1%	Not active	5%	7%
Cyclo-^DAsp(Pro-^DPro-Val)-NHCH2CH2CH2SH [Compound 18b]					9.5%	15%	48%	Not active
